In the assay the test system is adipose cells of rats. Nature of the assay: Evaluation of the sugar-transporting activity (2-[14C(U)]-deoxy-D-glucose incorporation). In kind it is cell-based. Conditions: rat adipose cells; for activation at 100 µg/mL: 100 μg/ml of each compound, evaluated on the basis of the reinforcing effect of insulin (100 nM); for A: sugar transporting activity (EC50): concentration having a reinforcing effect corresponding to 50% of the reinforcing effect of insulin (100%). The protocol:
After the decapitation and venesection of 6 male Wistar rats (body weight: 150 to 200 g), an incision was made in the abdomen of each rat to extract 6 g in total of epididymal adipose tissues. The tissues were finely cut into 2 mm×2 mm pieces in 6 ml of KRH (Krebs-Ringer Hepes, composition: 130 mM of sodium chloride, 4.7 mM of potassium chloride, 1.2 mM of potassium dihydrogenphosphate, 1.2 mM of magnesium sulfate, 1 mM of calcium chloride and 25 mM of Hepes, pH=7.6) containing 5% of BSA (bovine serum albumin). 24 mg of collagenase (type I) was added thereto and the digestion treatment was conducted for about 40 minutes to obtain about 6 ml of isolated adipose cells. The collagenase was removed by the buffer exchange. 2% BSA/KRH solution was added to the residue for the re-suspension to obtain 45 ml of an adipose cell suspension.
The sugar-transporting activity of the compounds of the present invention was evaluated with reference to a method described in a literature [Annual Review of Biochemistry, Vol. 55, p. 1059 (1986)]. In the test, 200 μl of the adipose cell suspension was poured in each polystyrene test tube, 100 μl of the solution of the test substance (by dilution of 10 mg/ml substance dimethyl sulfoxide solution with KRH) was added thereto, and the obtained mixture was shaken and then cultured at 37° C. for 30 minutes.
The sugar-transporting activity was evaluated by measuring the quantity of 2-[^14C(U)]-deoxy-D-glucose incorporated per a unit time. Namely, 2-[^14C(U)]-deoxy-D-glucose was added to the adipose cell suspension after the pre-culture (the final concentration: 0.5 μCi/sample). 5 minutes after, cytochalasin B (final concentration: 10 μM) was added to the mixture to terminate the sugar transportation. After forming a dinonyl phthalate layer, the obtained mixture was centrifuged to separate the adipose cells from the buffer. The quantity of 2-[^14C(U)]-deoxy-D-glucose contained in the adipose cell layer was determined with a liquid scintillation counter to determine the quantity of the incorporated sugar. In this evaluation system, when insulin (100 nM) having the effect of increasing the sugar transportation was used, the effect was about 7 times as high as that obtained in the insulin-free control group.
The results of the evaluation of the sugar-transporting activity obtained by using 100 μg/ml of each compound of the present invention are shown in Table 6. The sugar transporting activity in Table 6 was evaluated on the basis of the reinforcing effect of insulin (100 nM). […] The symbols in Table 6 are as follows: • No: Example No., and • A: sugar transporting activity.
The results of the evaluation of the sugar-transporting activity obtained by using each compound of the present invention are shown in Table 7. The sugar transporting activity in Table 7 was determined in terms of the concentration (EC50: μg/ml) of a test compound, having a reinforcing effect corresponding to 50% on the basis of the reinforcing effect of insulin having a reinforcing effect of 100%.

For the compound `O=C1NCC2=C1C(c1ccc(OCc3ccccc3)cc1)Nc1ccccc1N2` (stereo not shown) [Example 1], the activation at 100 µg/mL is 40 to 70%.

`O=C1NCC2=C1C(c1ccc(Cl)cc1)Nc1ccccc1N2` (stereo not shown) [Example 2] yielded an activation at 100 µg/mL of 20 to 40%.

In turn, `O=C1NCC2=C1C(c1ccc(I)cc1)Nc1ccccc1N2` (stereo not shown) [Example 3] showed an activation at 100 µg/mL of 20 to 40%.

As for `CC(C)(C)c1ccc(C2Nc3ccccc3NC3=C2C(=O)NC3)cc1` (stereo not shown) [Example 5], the activation at 100 µg/mL lay in the range of 20 to 40%.

`O=C1NCC2=C1C(c1ccc(C#Cc3ccccc3)cc1)Nc1ccccc1N2` (stereo not shown) [Example 6] returned an activation at 100 µg/mL of 40 to 70%.

With `O=C1NCC2=C1C(c1ccc(-c3ccccc3)cc1)Nc1ccccc1N2` (stereo not shown) [Example 7], the activation at 100 µg/mL lay in the range of 40 to 70%.

Turning to `O=C1NCC2=C1C(c1ccc(-c3ccc([N+](=O)[O-])cc3)cc1)Nc1ccccc1N2` (stereo not shown) [Example 8], the activation at 100 µg/mL was at least 70%.

In turn, `O=C1NCC2=C1C(c1ccc3c(c1)Cc1ccccc1-3)Nc1ccccc1N2` (stereo not shown) [Example 9] yielded an activation at 100 µg/mL of 40 to 70%.

As to `CCCCOc1ccc(C2Nc3ccccc3NC3=C2C(=O)NC3)cc1` (stereo not shown) [Example 10], the activation at 100 µg/mL was in the range of 20 to 40%.

As for `CCCCCCCCCCCCOc1ccc(C2Nc3ccccc3NC3=C2C(=O)NC3)cc1` (stereo not shown) [Example 11], the activation at 100 µg/mL was 40 to 70%.

Regarding `O=C1NCC2=C1C(c1ccc(OC3CCCCCC3)cc1)Nc1ccccc1N2` (stereo not shown) [Example 12], the activation at 100 µg/mL was 20 to 40%.

With `O=C1NCC2=C1C(c1ccc(OC3C4CC5CC(C4)CC3C5)cc1)Nc1ccccc1N2` (stereo not shown) [Example 13], the activation at 100 µg/mL was 40 to 70%.

In the case of `O=C1NCC2=C1C(c1ccc(OCC34CC5CC(CC(C5)C3)C4)cc1)Nc1ccccc1N2` (stereo not shown) [Example 14], the activation at 100 µg/mL was at least 70%.

Compound `O=C1NCC2=C1C(c1ccc(OCCC34CC5CC(CC(C5)C3)C4)cc1)Nc1ccccc1N2` (stereo not shown) [Example 15] returned an activation at 100 µg/mL of 40 to 70%.

`O=C1NCC2=C1C(c1ccc(OCCC3CCCCC3)cc1)Nc1ccccc1N2` (stereo not shown) [Example 16] gave an activation at 100 µg/mL of 40 to 70%.

In the case of `O=C1NCC2=C1C(c1ccc(-n3cccn3)cc1)Nc1ccccc1N2` (stereo not shown) [Example 17], the activation at 100 µg/mL lay in the range of 20 to 40%.

`O=C1NCC2=C1C(c1ccc(Cl)cc1Cl)Nc1ccccc1N2` (stereo not shown) [Example 20] showed an activation at 100 µg/mL of 20 to 40%.

Turning to `CCCCOc1ccc(C2Nc3ccccc3NC3=C2C(=O)NC3)c(OC)c1` (stereo not shown) [Example 21], the activation at 100 µg/mL fell in the range of 40 to 70%.

Consider `CCCCOc1ccc(C2Nc3ccccc3NC3=C2C(=O)NC3)c(OCCCC)c1` (stereo not shown) [Example 22], for which the activation at 100 µg/mL is at least 70%.

Compound `CCCCOc1ccc(C2Nc3ccccc3NC3=C2C(=O)NC3)c(OCC)c1` (stereo not shown) [Example 23] came in with an activation at 100 µg/mL of at least 70%.

In turn, `CCCCOc1ccc(C2Nc3ccccc3NC3=C2C(=O)NC3)c(OCCC)c1` (stereo not shown) [Example 24] returned an activation at 100 µg/mL of at least 70%.

The compound `CCCOc1cc(OCC)ccc1C1Nc2ccccc2NC2=C1C(=O)NC2` (stereo not shown) [Example 25] returned an activation at 100 µg/mL of 40 to 70%.

For the compound `CCCOc1ccc(C2Nc3ccccc3NC3=C2C(=O)NC3)c(OCC)c1` (stereo not shown) [Example 26], the activation at 100 µg/mL lay in the range of 40 to 70%.

Take `CCCCCCOc1ccc(C2Nc3ccccc3NC3=C2C(=O)NC3)c(OC)c1` (stereo not shown) [Example 27]: the activation at 100 µg/mL was 40 to 70%.

`COc1cc(OCc2ccccc2)ccc1C1Nc2ccccc2NC2=C1C(=O)NC2` (stereo not shown) [Example 28] came in with an activation at 100 µg/mL of 40 to 70%.

`CCCCCCOc1ccc(C2Nc3ccccc3NC3=C2C(=O)NC3)c(O)c1` (stereo not shown) [Example 29] came in with an activation at 100 µg/mL of 20 to 40%.

As for `CC(C)(C)c1ccc(C2Nc3ccccc3NC3=C2C(=O)NC3)c(Cl)c1` (stereo not shown) [Example 30], the activation at 100 µg/mL was 20 to 40%.

Turning to `CC(C)(C)CC(C)(C)c1ccc(C2Nc3ccccc3NC3=C2C(=O)NC3)c(Cl)c1` (stereo not shown) [Example 31], the activation at 100 µg/mL is at least 70%.

Take `O=C1NCC2=C1C(c1cnc(-c3ccccc3)nc1)Nc1ccccc1N2` (stereo not shown) [Example 34]: the activation at 100 µg/mL was 20 to 40%.

`O=C1NCC2=C1[C@@H](c1ccc(Br)cc1)N[C@@H]1CCCC[C@H]1N2` [Example 37] showed an activation at 100 µg/mL of 40 to 70%.

`O=C1NCC2=C1[C@@H](c1ccc(OCc3ccccc3)cc1O)N[C@@H]1CCCC[C@H]1N2` [Example 38] yielded an activation at 100 µg/mL of at least 70%.

Regarding `COc1ccccc1[C@H]1N[C@@H]2CCCC[C@H]2NC2=C1C(=O)NC2` [Example 39], the activation at 100 µg/mL is at least 70%.

Regarding `CCCCOc1ccc([C@H]2N[C@@H]3CCCC[C@H]3NC3=C2C(=O)NC3)c(OCCCC)c1` [Example 40], the activation at 100 µg/mL was at least 70%.

Compound `O=C1NCC2=C1[C@@H](c1ccc(Cl)cc1)N[C@@H]1CCCC[C@H]1N2` [Example 41] had an activation at 100 µg/mL of at least 70%.

`CC(=O)N1c2ccccc2NC2=C(C(=O)NC2)C1c1ccc(Br)cc1` (stereo not shown) [Example 43] showed an activation at 100 µg/mL of 40 to 70%.

For the compound `CN1C2=C(C(=O)NC2)C(c2ccc(Br)cc2)Nc2ccccc21` (stereo not shown) [Example 44], the activation at 100 µg/mL is 20 to 40%.

For the compound `COc1ccccc1[C@@H]1C2=C(CNC2=O)N[C@@H]2CCCC[C@H]2N1C(C)=O` [Example 45], the “A: sugar transporting activity (EC50)” value worked out at 1.3 µg/mL.

Regarding `CCC(=O)N1[C@@H]2CCCC[C@H]2NC2=C(C(=O)NC2)[C@H]1c1ccccc1OC` [Example 46], the “A: sugar transporting activity (EC50)” value came to 0.77 µg/mL.

`CCCC(=O)N1[C@@H]2CCCC[C@H]2NC2=C(C(=O)NC2)[C@H]1c1ccccc1OC` [Example 47]: the “A: sugar transporting activity (EC50)” value worked out at 4.6 µg/mL.

`COc1ccccc1[C@@H]1C2=C(CNC2=O)N[C@@H]2CCCC[C@H]2N1C(=O)C(F)(F)F` [Example 48]: the “A: sugar transporting activity (EC50)” value worked out at 4.5 µg/mL.

With `COc1ccccc1[C@@H]1C2=C(CNC2=O)N[C@@H]2CCCC[C@H]2N1C(=O)CC(F)(F)F` [Example 49], the “A: sugar transporting activity (EC50)” value stood at 0.47 µg/mL.

Consider `COc1ccccc1[C@@H]1C2=C(CNC2=O)N[C@@H]2CCCC[C@H]2N1C(=O)C(F)(F)C(F)(F)F` [Example 50], for which the “A: sugar transporting activity (EC50)” value stood at 9.5 µg/mL.

As for `COc1ccccc1[C@@H]1C2=C(CNC2=O)N[C@@H]2CCCC[C@H]2N1C(=O)CO` [Example 51], the “A: sugar transporting activity (EC50)” value worked out at 2 µg/mL.

For the compound `COc1ccccc1[C@@H]1C2=C(CNC2=O)N[C@@H]2CCCC[C@H]2N1C(=O)COC(C)=O` [Example 52], the “A: sugar transporting activity (EC50)” value worked out at 5.9 µg/mL.

As for `COCC(=O)N1[C@@H]2CCCC[C@H]2NC2=C(C(=O)NC2)[C@H]1c1ccccc1OC` [Example 53], the “A: sugar transporting activity (EC50)” value is 2 µg/mL.

As to `CCOCC(=O)N1[C@@H]2CCCC[C@H]2NC2=C(C(=O)NC2)[C@H]1c1ccccc1OC` [Example 54], the “A: sugar transporting activity (EC50)” value was found to be 2.2 µg/mL.

As for `COc1ccccc1[C@@H]1C2=C(CNC2=O)N[C@@H]2CCCC[C@H]2N1C(=O)COc1ccccc1` [Example 55], the “A: sugar transporting activity (EC50)” value came to 4.6 µg/mL.

Regarding `COc1ccccc1[C@@H]1C2=C(CNC2=O)N[C@@H]2CCCC[C@H]2N1C(=O)Cc1ccccc1` [Example 56], the “A: sugar transporting activity (EC50)” value was 5 µg/mL.

For the compound `CC=CC(=O)N1C(c2ccccc2OC)C2=C(CNC2=O)NC2CCCCC21` (stereo not shown) [Example 59], the “A: sugar transporting activity (EC50)” value was 1.1 µg/mL.

For the compound `COC(=O)CCC(=O)N1[C@@H]2CCCC[C@H]2NC2=C(C(=O)NC2)[C@H]1c1ccccc1OC` [Example 60], the “A: sugar transporting activity (EC50)” value amounted to 4.8 µg/mL.

As for `COc1ccccc1[C@@H]1C2=C(CNC2=O)N[C@@H]2CCCC[C@H]2N1C(=O)CCCO` [Example 62], the “A: sugar transporting activity (EC50)” value came to 4.8 µg/mL.

Consider `COc1ccccc1[C@@H]1C2=C(CNC2=O)N[C@@H]2CCCC[C@H]2N1C(=O)CCNC(=O)OCc1ccccc1` [Example 65], for which the “A: sugar transporting activity (EC50)” value amounted to 8 µg/mL.

`COc1ccccc1[C@@H]1C2=C(CNC2=O)N[C@@H]2CCCC[C@H]2N1C(=O)CCN` [Example 66]: the “A: sugar transporting activity (EC50)” value was 8 µg/mL.

For `COCCC(=O)N1[C@@H]2CCCC[C@H]2NC2=C(C(=O)NC2)[C@H]1c1ccccc1OC` [Example 67], the “A: sugar transporting activity (EC50)” value amounted to 3.4 µg/mL.

For `COc1ccccc1[C@@H]1C2=C(CNC2=O)N[C@@H]2CCCC[C@H]2N1C(=O)CCc1ccccc1` [Example 68], the “A: sugar transporting activity (EC50)” value was 0.9 µg/mL.
